Test results as given in paper PMC5218480 (PLoS ONE, 2017).

Test system: MV-4-11 cells
Test: Gene expression microarray analysis (Affymetrix PrimeView) and GSEA
Format: cell-based, human
Parameters: RFU PODN (11730768_x_at) / Fold change /veh PODN (11730768_x_at) / RFU LINC00158 (11744669_a_at) / Fold change /veh LINC00158 (11744669_a_at) / RFU DUSP10 (11751237_a_at) / Fold change /veh DUSP10 (11751237_a_at) / RFU ID3 (11757404_x_at) / Fold change /veh ID3 (11757404_x_at) / RFU PLEKHG5 (11737974_s_at) / Fold change /veh PLEKHG5 (11737974_s_at) / RFU LRRC4B (11730491_at) / Fold change /veh LRRC4B (11730491_at) / RFU GIMAP4 (11747438_a_at) / Fold change /veh GIMAP4 (11747438_a_at) / RFU KRT8 (11758183_x_at) / Fold change /veh KRT8 (11758183_x_at) / RFU CNN1 (11734310_a_at) / Fold change /veh CNN1 (11734310_a_at) / RFU VPS37D (11726825_at) / Fold change /veh VPS37D (11726825_at) / RFU C10orf10 (11716522_x_at) / Fold change /veh C10orf10 (11716522_x_at) / RFU KIR2DL2 /// KIR2DL4 /// KIR2DL5A /// KIR2DL5B /// KIR2DS1 /// KIR2DS2 /// KIR2DS3 /// KIR2DS4 /// KIR3DL3 /// KIR3DL3 /// KIR3DS1 (11738374_at) / Fold change /veh KIR2DL2 /// KIR2DL4 /// KIR2DL5A /// KIR2DL5B /// KIR2DS1 /// KIR2DS2 /// KIR2DS3 /// KIR2DS4 /// KIR3DL3 /// KIR3DL3 /// KIR3DS1 (11738374_at) / RFU C1QL1 (11718748_at) / Fold change /veh C1QL1 (11718748_at) / RFU TMPRSS4 (11747572_a_at) / Fold change /veh TMPRSS4 (11747572_a_at) / RFU HAMP (11756126_x_at) / Fold change /veh HAMP (11756126_x_at) / RFU RNFT2 (11725882_a_at) / Fold change /veh RNFT2 (11725882_a_at) / RFU NR4A2 (11747474_a_at) / Fold change /veh NR4A2 (11747474_a_at) / RFU ABCC12 (11746883_a_at) / Fold change /veh ABCC12 (11746883_a_at) / RFU TMEM136 (11760407_x_at) / Fold change /veh TMEM136 (11760407_x_at) / RFU CLDN22 /// WWC2 (11732394_at) / Fold change /veh CLDN22 /// WWC2 (11732394_at) / RFU HLA-DPB1 (11760878_x_at) / Fold change /veh HLA-DPB1 (11760878_x_at) / RFU SPINT1 (11716480_a_at) / Fold change /veh SPINT1 (11716480_a_at) / RFU GAP43 (11754022_s_at) / Fold change /veh GAP43 (11754022_s_at) / RFU A4GNT (11735810_at) / Fold change /veh A4GNT (11735810_at) / RFU PRB3 (11715151_x_at) / Fold change /veh PRB3 (11715151_x_at) / RFU TUBB4B (11761932_at) / Fold change /veh TUBB4B (11761932_at) / RFU CAPN14 (11732068_a_at) / Fold change /veh CAPN14 (11732068_a_at) / RFU TMCC2 (11721928_a_at) / Fold change /veh TMCC2 (11721928_a_at) / RFU IRGQ (11745062_a_at) / Fold change /veh IRGQ (11745062_a_at) / RFU FAM174B (11720279_a_at) / Fold change /veh FAM174B (11720279_a_at) / RFU TMPRSS4 (11748680_a_at) / Fold change /veh TMPRSS4 (11748680_a_at) / RFU FAM212B (11763350_a_at) / Fold change /veh FAM212B (11763350_a_at) / RFU PLEKHG5 (11743358_a_at) / Fold change /veh PLEKHG5 (11743358_a_at) / RFU ZSCAN30 (11745921_a_at) / Fold change /veh ZSCAN30 (11745921_a_at) / RFU CMKLR1 (11741424_a_at) / Fold change /veh CMKLR1 (11741424_a_at) / RFU LOC101060620 /// MAPK8IP1 (11723275_at) / Fold change /veh LOC101060620 /// MAPK8IP1 (11723275_at) / RFU SPTSSB (11747773_x_at) / Fold change /veh SPTSSB (11747773_x_at) / RFU PRSS12 (11739890_at) / Fold change /veh PRSS12 (11739890_at) / RFU BIN1 (11741810_x_at) / Fold change /veh BIN1 (11741810_x_at) / RFU WNT11 (11732464_a_at) / Fold change /veh WNT11 (11732464_a_at) / RFU C10orf10 (11716521_a_at) / Fold change /veh C10orf10 (11716521_a_at) / RFU C5orf56 (11738089_at) / Fold change /veh C5orf56 (11738089_at) / RFU CYB561 (11721691_x_at) / Fold change /veh CYB561 (11721691_x_at) / RFU ANKRD19P (11752326_a_at) / Fold change /veh ANKRD19P (11752326_a_at) / RFU OR2T12 /// OR2T33 /// OR2T8 (11738714_s_at) / Fold change /veh OR2T12 /// OR2T33 /// OR2T8 (11738714_s_at) / RFU VCAN (11748164_a_at) / Fold change /veh VCAN (11748164_a_at) / RFU JSRP1 (11732532_at) / Fold change /veh JSRP1 (11732532_at) / RFU KRTAP10-11 (11738290_x_at) / Fold change /veh KRTAP10-11 (11738290_x_at) / RFU MYO3A (11730013_a_at) / Fold change /veh MYO3A (11730013_a_at) / RFU EBF3 (11725865_a_at) / Fold change /veh EBF3 (11725865_a_at) / RFU CAMK2N1 (11719241_x_at) / Fold change /veh CAMK2N1 (11719241_x_at) / RFU C5orf56 (11738088_a_at) / Fold change /veh C5orf56 (11738088_a_at) / RFU OLFML3 (11715873_a_at) / Fold change /veh OLFML3 (11715873_a_at) / RFU LOC100653217 /// NTM (11731650_a_at) / Fold change /veh LOC100653217 /// NTM (11731650_a_at) / RFU MAPK11 (11762145_a_at) / Fold change /veh MAPK11 (11762145_a_at) / RFU FIZ1 (11724087_x_at) / Fold change /veh FIZ1 (11724087_x_at) / RFU OASL (11726364_x_at) / Fold change /veh OASL (11726364_x_at) / RFU SOX15 (11748057_x_at) / Fold change /veh SOX15 (11748057_x_at) / RFU CD79A (11719716_a_at) / Fold change /veh CD79A (11719716_a_at) / RFU HIST1H1D (11736915_at) / Fold change /veh HIST1H1D (11736915_at) / RFU CASKIN2 (11723855_a_at) / Fold change /veh CASKIN2 (11723855_a_at) / RFU LOC730098 (11760151_x_at) / Fold change /veh LOC730098 (11760151_x_at) / RFU OR4N2 (11742367_at) / Fold change /veh OR4N2 (11742367_at) / RFU PRRT2 (11749266_a_at) / Fold change /veh PRRT2 (11749266_a_at) / RFU SNX32 (11753110_a_at) / Fold change /veh SNX32 (11753110_a_at) / RFU CDHR5 (11726645_a_at) / Fold change /veh CDHR5 (11726645_a_at) / RFU RCAN1 (11760418_a_at) / Fold change /veh RCAN1 (11760418_a_at) / RFU FAM167A (11723789_a_at) / Fold change /veh FAM167A (11723789_a_at) / RFU FAM26E (11764081_at) / Fold change /veh FAM26E (11764081_at) / RFU ISYNA1 (11749810_s_at) / Fold change /veh ISYNA1 (11749810_s_at) / RFU ACY1 (11761880_at) / Fold change /veh ACY1 (11761880_at) / RFU 11764098_at / Fold change /veh 11764098_at / RFU SAMD14 (11745864_x_at) / Fold change /veh SAMD14 (11745864_x_at) / RFU NPB (11741838_a_at) / Fold change /veh NPB (11741838_a_at) / RFU TMPRSS6 (11731388_a_at) / Fold change /veh TMPRSS6 (11731388_a_at) / RFU KRTAP10-2 (11738614_at) / Fold change /veh KRTAP10-2 (11738614_at) / RFU ARHGAP8 /// PRR5-ARHGAP8 (11727945_x_at) / Fold change /veh ARHGAP8 /// PRR5-ARHGAP8 (11727945_x_at) / RFU KRTAP5-7 /// NADSYN1 (11734609_at) / Fold change /veh KRTAP5-7 /// NADSYN1 (11734609_at) / RFU RASL12 (11751679_a_at) / Fold change /veh RASL12 (11751679_a_at) / RFU CDKN2B (11736163_a_at) / Fold change /veh CDKN2B (11736163_a_at) / RFU PRF1 (11729649_at) / Fold change /veh PRF1 (11729649_at) / RFU, ZNF638 /// ZNF638-IT1 / Fold change vs veh, ZNF638 /// ZNF638-IT1 / RFU, PANK3 / Fold change vs veh, PANK3 / RFU, SH3YL1 / Fold change vs veh, SH3YL1 / RFU, ZEB2 / Fold change vs veh, ZEB2 / RFU, NRIP1 / Fold change vs veh, NRIP1 / RFU, PTTG1IP / Fold change vs veh, PTTG1IP / RFU, CAPN2 / Fold change vs veh, CAPN2 / RFU, MED14 / Fold change vs veh, MED14 / RFU, SNORA58 / Fold change vs veh, SNORA58 / RFU, C1orf63 / Fold change vs veh, C1orf63 / RFU, LRRFIP1 / Fold change vs veh, LRRFIP1 / RFU, NDUFAF7 / Fold change vs veh, NDUFAF7 / RFU, SLC12A2 / Fold change vs veh, SLC12A2 / RFU, IBTK / Fold change vs veh, IBTK / RFU, ESF1 / Fold change vs veh, ESF1 / Fold change vs veh, TMEM50B / RFU, TAOK1 / Fold change vs veh, TAOK1 / RFU, ACBD3 / Fold change vs veh, ACBD3 / RFU, TMA16 / Fold change vs veh, TMA16 / RFU, RWDD3 / Fold change vs veh, RWDD3 / RFU, BCAT1 / Fold change vs veh, BCAT1 / RFU, EDEM3 / Fold change vs veh, EDEM3 / RFU, TMEM33 / Fold change vs veh, TMEM33 / RFU, WDR75 / Fold change vs veh, WDR75 / RFU, AHCTF1 / Fold change vs veh, AHCTF1 / RFU, TFRC / Fold change vs veh, TFRC / RFU, ZDHHC17 / Fold change vs veh, ZDHHC17 / RFU, NOM1 / Fold change vs veh, NOM1 / RFU, ARL8B / Fold change vs veh, ARL8B / RFU, ZBTB11 / Fold change vs veh, ZBTB11 / RFU, TAMM41 / Fold change vs veh, TAMM41 / RFU, KIAA1704 /// LOC100996395 / Fold change vs veh, KIAA1704 /// LOC100996395 / RFU, ING1 / Fold change vs veh, ING1 / RFU, TRMT61B / Fold change vs veh, TRMT61B / RFU, FUBP3 / Fold change vs veh, FUBP3 / RFU, TP53 / Fold change vs veh, TP53 / RFU, TNKS2 / Fold change vs veh, TNKS2 / RFU, ZFP14 / Fold change vs veh, ZFP14 / RFU, ACTR2 / Fold change vs veh, ACTR2 / RFU, PPP3R1 / Fold change vs veh, PPP3R1 / RFU, PIK3R1 / Fold change vs veh, PIK3R1 / RFU, HNRNPA1 / Fold change vs veh, HNRNPA1 / RFU, RNF170 / Fold change vs veh, RNF170 / RFU, ZNF28 / Fold change vs veh, ZNF28 / RFU, RNGTT / Fold change vs veh, RNGTT / RFU, OGT / Fold change vs veh, OGT / RFU, BRD1 / Fold change vs veh, BRD1 / RFU, MARS / Fold change vs veh, MARS / RFU, ZNF655 / Fold change vs veh, ZNF655 / RFU, FAHD1 / Fold change vs veh, FAHD1 / RFU, BDP1 / Fold change vs veh, BDP1 / RFU, LRRCC1 / Fold change vs veh, LRRCC1 / RFU, ARID1A / Fold change vs veh, ARID1A / RFU, ZNF146 / Fold change vs veh, ZNF146 / RFU, ZNF330 / Fold change vs veh, ZNF330 / RFU, GPN3 / Fold change vs veh, GPN3 / RFU, C9orf123 / Fold change vs veh, C9orf123 / RFU, N4BP2L2 / Fold change vs veh, N4BP2L2 / RFU, ARFIP1 / Fold change vs veh, ARFIP1 / RFU, FAM179B / Fold change vs veh, FAM179B / RFU, BCL10 / Fold change vs veh, BCL10 / RFU, UHRF1BP1L / Fold change vs veh, UHRF1BP1L / RFU, BET1 / Fold change vs veh, BET1 / RFU, CNOT2 / Fold change vs veh, CNOT2 / RFU, ZNF268 / Fold change vs veh, ZNF268 / Fold change vs veh, ZNF507 / RFU, DGCR2 / Fold change vs veh, DGCR2 / RFU, WDSUB1 / Fold change vs veh, WDSUB1 / Fold change vs veh, HSP90B1 /// MIR3652 / RFU, ADSS / Fold change vs veh, ADSS / RFU, GK / Fold change vs veh, GK / RFU, ZNF148 / Fold change vs veh, ZNF148 / RFU, TAF9 / Fold change vs veh, TAF9 / RFU, SLC1A5 / Fold change vs veh, SLC1A5 / RFU, SLMO2 / Fold change vs veh, SLMO2 / RFU, ABCC4 / Fold change vs veh, ABCC4 / RFU, LOC101060439 /// RAP1B / Fold change vs veh, LOC101060439 /// RAP1B / RFU, RFX7 / Fold change vs veh, RFX7 / RFU, GTPBP10 / Fold change vs veh, GTPBP10 / RFU, CNEP1R1 / Fold change vs veh, CNEP1R1 / RFU, BIVM-ERCC5 /// ERCC5 / Fold change vs veh, BIVM-ERCC5 /// ERCC5 / RFU, ILF3 / Fold change vs veh, ILF3 / RFU 11762660_at / Fold change /veh 11762660_at / RFU VCAN (11757783_s_at) / Fold change /veh VCAN (11757783_s_at) / RFU DDX43 (11728927_at) / Fold change /veh DDX43 (11728927_at) / RFU KRT8 (11758188_x_at) / Fold change /veh KRT8 (11758188_x_at) / RFU NKD1 (11759106_at) / Fold change /veh NKD1 (11759106_at) / RFU SRD5A1 (11742802_a_at) / Fold change /veh SRD5A1 (11742802_a_at) / RFU TPSAB1 /// TPSB2 (11721975_s_at) / Fold change /veh TPSAB1 /// TPSB2 (11721975_s_at) / RFU GSTM3 (11746129_a_at) / Fold change /veh GSTM3 (11746129_a_at) / RFU IL23R (11737362_x_at) / Fold change /veh IL23R (11737362_x_at) / RFU TMEM51 (11727254_a_at) / Fold change /veh TMEM51 (11727254_a_at) / RFU PIWIL2 (11732686_x_at) / Fold change /veh PIWIL2 (11732686_x_at) / RFU ORM1 (11744905_x_at) / Fold change /veh ORM1 (11744905_x_at) / RFU CCDC152 (11743942_at) / Fold change /veh CCDC152 (11743942_at) / RFU ECM1 (11717891_a_at) / Fold change /veh ECM1 (11717891_a_at) / RFU IL23R (11748794_a_at) / Fold change /veh IL23R (11748794_a_at) / RFU TNFAIP8L3 (11732012_x_at) / Fold change /veh TNFAIP8L3 (11732012_x_at) / RFU MBOAT4 (11741988_at) / Fold change /veh MBOAT4 (11741988_at) / RFU 11764193_at / Fold change /veh 11764193_at / RFU TMEM53 (11763286_at) / Fold change /veh TMEM53 (11763286_at) / RFU MAGEB2 (11727129_at) / Fold change /veh MAGEB2 (11727129_at) / RFU TMEM200A (11744735_a_at) / Fold change /veh TMEM200A (11744735_a_at) / RFU CCDC152 (11751479_a_at) / Fold change /veh CCDC152 (11751479_a_at) / RFU FAM211A (11726209_a_at) / Fold change /veh FAM211A (11726209_a_at) / RFU RGS16 (11746705_a_at) / Fold change /veh RGS16 (11746705_a_at) / RFU VCAN (11755009_s_at) / Fold change /veh VCAN (11755009_s_at) / RFU RHOB (11743442_s_at) / Fold change /veh RHOB (11743442_s_at) / RFU RGS16 (11720943_a_at) / Fold change /veh RGS16 (11720943_a_at) / RFU RGS16 (11720944_at) / Fold change /veh RGS16 (11720944_at) / RFU, VPS4B / Fold change vs veh, VPS4B / RFU, CREB1 / Fold change vs veh, CREB1 / RFU, DNAJC13 / Fold change vs veh, DNAJC13 / RFU, GNAQ / Fold change vs veh, GNAQ / RFU, CDK5R1 / Fold change vs veh, CDK5R1 / RFU, ZRANB3 / Fold change vs veh, ZRANB3 / RFU, CUL4A / Fold change vs veh, CUL4A / RFU, CCNY / Fold change vs veh, CCNY / RFU, UFL1 / Fold change vs veh, UFL1 / RFU, COG3 / Fold change vs veh, COG3 / RFU, DIAPH2 / Fold change vs veh, DIAPH2 / RFU, SKA2 / Fold change vs veh, SKA2 / RFU, AFF3 / Fold change vs veh, AFF3 / RFU, LMF1 / Fold change vs veh, LMF1 / RFU, IPO11 / Fold change vs veh, IPO11 / RFU, DFFB / Fold change vs veh, DFFB / RFU, FOXP1 / Fold change vs veh, FOXP1 / RFU, CARD8 / Fold change vs veh, CARD8 / RFU, STRN3 / Fold change vs veh, STRN3 / RFU, ADK / Fold change vs veh, ADK / RFU, RASSF2 / Fold change vs veh, RASSF2 / RFU, WIPF1 / Fold change vs veh, WIPF1 / RFU, LARP1B / Fold change vs veh, LARP1B / RFU, RASA1 / Fold change vs veh, RASA1 / RFU, RB1 / Fold change vs veh, RB1 / RFU, PPFIA1 / Fold change vs veh, PPFIA1 / RFU, MAT2A / Fold change vs veh, MAT2A / RFU, CCT5 / Fold change vs veh, CCT5 / RFU, WDR92 / Fold change vs veh, WDR92 / RFU, CUX1 / Fold change vs veh, CUX1 / RFU, TTC7A / Fold change vs veh, TTC7A / RFU, TMEM135 / Fold change vs veh, TMEM135 / RFU, DEPTOR / Fold change vs veh, DEPTOR / RFU, CPM / Fold change vs veh, CPM / RFU, DNAJB6 / Fold change vs veh, DNAJB6 / RFU, CACNA2D3 / Fold change vs veh, CACNA2D3 / RFU, DTX4 / Fold change vs veh, DTX4 / RFU, TFCP2 / Fold change vs veh, TFCP2 / RFU, GMCL1 /// GMCL1P1 / Fold change vs veh, GMCL1 /// GMCL1P1 / RFU, AEBP2 / Fold change vs veh, AEBP2 / RFU, SNHG1 /// SNORD22 /// SNORD25 /// SNORD26 /// SNORD27 /// SNORD28 /// SNORD29 /// SNORD31 / Fold change vs veh, SNHG1 /// SNORD22 /// SNORD25 /// SNORD26 /// SNORD27 /// SNORD28 /// SNORD29 /// SNORD31 / Fold change (Aza/veh), C12orf56 (ProbeSet 11735607_a_at) / Fold change (ACY-1035/veh), C12orf56 (ProbeSet 11735607_a_at) / Fold change (Aza/veh), FGFR1OP (ProbeSet 11751329_s_at) / Fold change (ACY-1035/veh), FGFR1OP (ProbeSet 11751329_s_at) / Fold change (Aza/veh), VPS36 (ProbeSet 11739960_a_at) / Fold change (ACY-1035/veh), VPS36 (ProbeSet 11739960_a_at) / RFU SYPL1 (11715823_x_at) / Fold change /veh SYPL1 (11715823_x_at) / RFU IGFBP7 (11715501_s_at) / Fold change /veh IGFBP7 (11715501_s_at) / RFU REEP3 (11722064_at) / Fold change /veh REEP3 (11722064_at) / RFU IGLL1 (11728026_x_at) / Fold change /veh IGLL1 (11728026_x_at): dose or concentration left out as unconfirmed
Details: MV-4-11 cells, 48 hours

## Nc1ccc(-c2cccs2)cc1NC(=O)c1ccc2c(c1)cc(C1CC1)n2CCN1CCOCC1 [ACY-1035]
  Fold change /veh TMEM53 (11763286_at): 0.91
